Assay results as given in patent US20070049564A1 (Wyeth, priority 2005, published 2007).
≈ marks a conversion by molar mass, not a printed value. Like-named read-outs stand apart in the source and are kept apart here.

Assays:
Test in all cases: MIC, broth microdilution
S. aureus GC 6335 = settings: Staphylococcus aureus
E. coli GC 4560 = settings: Escherichia coli
S. pyogenes GC 4563 = settings: Streptococcus pyogenes
E. coli GC 2234 = settings: Escherichia coli
E. coli GC 3226 = settings: Escherichia coli
E. coli GC 6465 = settings: Escherichia coli
Experimental: (§1) Antimicrobial susceptibility testing. The in vitro activities of the antibiotics are determined by the broth microdilution method as recommended by the National Committee for Clinical Laboratory Standards (NCCLS) (1). Mueller-Hinton II broth (MHBII)(BBL Cockeysville, Md.) is the medium employed in the testing procedures. Microtiter plates containing serial dilutions of each antimicrobial agent are inoculated with each organism to yield the appropriate density (10^5 CFU/ml) in a 100 μl final volume. The plates are incubated for 18-22 hours at 35° C. in ambient air.
(§2) Representative compounds were first incubated in mouse serum for an hour prior to the in vitro testing against a panel of selected gram-positive and gram-negative bacteria strains. All compounds were also pre-incubated in water for an hour prior to testing as control.

E. coli GC 2233 = settings: Escherichia coli
S. agalactiae GC 4564 = settings: Streptococcus agalactiae
S. typhimurium GC 2172 = settings: Salmonella enterica, TYPHIMURIUM
S. aureus GC 6467 = settings: Staphylococcus aureus
E. coli GC 1073 = settings: Escherichia coli
E. coli GC 2235 = settings: Escherichia coli
E. coli GC 4559 = settings: Escherichia coli
S. aureus GC 6469 = settings: Staphylococcus aureus
Experimental: as §1, §2

E. coli GC 2271 = settings: Escherichia coli
E. faecium GC 4556 = settings: Enterococcus faecium
S. aureus GC 6466 = settings: Staphylococcus aureus
E. coli GC 2270 = settings: Escherichia coli
E. coli GC 2203 = settings: Escherichia coli
S. aureus GC 1079 = settings: Staphylococcus aureus

CCCCCCC(=O)OCOC(=O)N(CC(=O)Nc1cc(N(C)C)c2c(c1O)C(=O)C1=C(O)[C@]3(O)C(=O)C(C(N)=O)=C(O)[C@@H](N(C)C)[C@@H]3C[C@@H]1C2)C(C)(C)C [Example 48, ({[(2-{[(5aR,6aS,7S,10aS)-9-(aminocarbonyl)-4,7-bis(dimethylamino)-1,8,10a,11-tetrahydroxy-10,12-dioxo-5,5a,6,6a,7,10,10a,12-octahydrotetracen-2-yl]amino}-2-oxoethyl)(tert-butyl)amino]carbonyl}oxy)methyl heptanoate]
MIC (S. aureus GC 6335; GC6335, read-out: MINIMAL INHIBITORY CONCENTRATION MIC, Human Serum): 2 µg/mL (≈ 2.59 µM) | MIC (S. aureus GC 6335; GC6335, read-out: MINIMAL INHIBITORY CONCENTRATION MIC, Mouse Serum): 2 µg/mL (≈ 2.59 µM) | MIC (S. aureus GC 6335; GC6335, read-out: MINIMAL INHIBITORY CONCENTRATION MIC, Water): 2 µg/mL (≈ 2.59 µM) | MIC (E. coli GC 4560; GC4560, read-out: MINIMAL INHIBITORY CONCENTRATION MIC, Human Serum): 1 µg/mL (≈ 1.3 µM) | MIC (E. coli GC 4560; GC4560, read-out: MINIMAL INHIBITORY CONCENTRATION MIC, Mouse Serum): 0.12 µg/mL (≈ 0.155 µM) | MIC (E. coli GC 4560; GC4560, read-out: MINIMAL INHIBITORY CONCENTRATION MIC, Water): 2 µg/mL (≈ 2.59 µM) | MIC (S. pyogenes GC 4563; GC4563, read-out: MINIMAL INHIBITORY CONCENTRATION MIC, Human Serum): 0.12 µg/mL (≈ 0.155 µM) | MIC (S. pyogenes GC 4563; GC4563, read-out: MINIMAL INHIBITORY CONCENTRATION MIC, Mouse Serum): 0.12 µg/mL (≈ 0.155 µM) | MIC (S. pyogenes GC 4563; GC4563, read-out: MINIMAL INHIBITORY CONCENTRATION MIC, Water): 0.12 µg/mL (≈ 0.155 µM) | MIC (E. coli GC 2234; GC2234, read-out: MINIMAL INHIBITORY CONCENTRATION MIC, Human Serum): 16 µg/mL (≈ 20.7 µM) | MIC (E. coli GC 2234; GC2234, read-out: MINIMAL INHIBITORY CONCENTRATION MIC, Mouse Serum): 0.5 µg/mL (≈ 0.648 µM) | MIC (E. coli GC 2234; GC2234, read-out: MINIMAL INHIBITORY CONCENTRATION MIC, Water): 64 µg/mL (≈ 82.9 µM) | MIC (E. coli GC 3226; GC3226, read-out: MINIMAL INHIBITORY CONCENTRATION MIC, Human Serum): 32 µg/mL (≈ 41.5 µM) | MIC (E. coli GC 3226; GC3226, read-out: MINIMAL INHIBITORY CONCENTRATION MIC, Mouse Serum): 0.5 µg/mL (≈ 0.648 µM) | MIC (E. coli GC 3226; GC3226, read-out: MINIMAL INHIBITORY CONCENTRATION MIC, Water): > 64 µg/mL | MIC (E. coli GC 6465; GC6465, read-out: MINIMAL INHIBITORY CONCENTRATION MIC, Human Serum): > 64 µg/mL | MIC (E. coli GC 6465; GC6465, read-out: MINIMAL INHIBITORY CONCENTRATION MIC, Mouse Serum): 2 µg/mL (≈ 2.59 µM) | MIC (E. coli GC 6465; GC6465, read-out: MINIMAL INHIBITORY CONCENTRATION MIC, Water): > 64 µg/mL | MIC (E. coli GC 2233; GC2233, read-out: MINIMAL INHIBITORY CONCENTRATION MIC, Human Serum): 16 µg/mL (≈ 20.7 µM) | MIC (E. coli GC 2233; GC2233, read-out: MINIMAL INHIBITORY CONCENTRATION MIC, Mouse Serum): 0.25 µg/mL (≈ 0.324 µM) | MIC (E. coli GC 2233; GC2233, read-out: MINIMAL INHIBITORY CONCENTRATION MIC, Water): 64 µg/mL (≈ 82.9 µM) | MIC (S. agalactiae GC 4564; GC4564, read-out: MINIMAL INHIBITORY CONCENTRATION MIC, Human Serum): 0.12 µg/mL (≈ 0.155 µM) | MIC (S. agalactiae GC 4564; GC4564, read-out: MINIMAL INHIBITORY CONCENTRATION MIC, Mouse Serum): 0.12 µg/mL (≈ 0.155 µM) | MIC (S. agalactiae GC 4564; GC4564, read-out: MINIMAL INHIBITORY CONCENTRATION MIC, Water): 0.12 µg/mL (≈ 0.155 µM) | MIC (S. typhimurium GC 2172; read-out: MINIMAL INHIBITORY CONCENTRATION MIC, Human Serum): > 64 µg/mL | MIC (S. typhimurium GC 2172; read-out: MINIMAL INHIBITORY CONCENTRATION MIC, Mouse Serum): 4 µg/mL (≈ 5.18 µM) | MIC (S. typhimurium GC 2172; read-out: MINIMAL INHIBITORY CONCENTRATION MIC, Water): > 64 µg/mL | MIC (S. aureus GC 6467; GC6467, read-out: MINIMAL INHIBITORY CONCENTRATION MIC, Human Serum): 0.5 µg/mL (≈ 0.648 µM) | MIC (S. aureus GC 6467; GC6467, read-out: MINIMAL INHIBITORY CONCENTRATION MIC, Mouse Serum): 1 µg/mL (≈ 1.3 µM) | MIC (S. aureus GC 6467; GC6467, read-out: MINIMAL INHIBITORY CONCENTRATION MIC, Water): 2 µg/mL (≈ 2.59 µM) | MIC (E. coli GC 1073; GC1073, read-out: MINIMAL INHIBITORY CONCENTRATION MIC, Human Serum): 32 µg/mL (≈ 41.5 µM) | MIC (E. coli GC 1073; GC1073, read-out: MINIMAL INHIBITORY CONCENTRATION MIC, Mouse Serum): 0.5 µg/mL (≈ 0.648 µM) | MIC (E. coli GC 1073; GC1073, read-out: MINIMAL INHIBITORY CONCENTRATION MIC, Water): 64 µg/mL (≈ 82.9 µM) | MIC (E. coli GC 2235; GC2235, read-out: MINIMAL INHIBITORY CONCENTRATION MIC, Human Serum): 16 µg/mL (≈ 20.7 µM) | MIC (E. coli GC 2235; GC2235, read-out: MINIMAL INHIBITORY CONCENTRATION MIC, Mouse Serum): 0.25 µg/mL (≈ 0.324 µM) | MIC (E. coli GC 2235; GC2235, read-out: MINIMAL INHIBITORY CONCENTRATION MIC, Water): 32 µg/mL (≈ 41.5 µM) | MIC (E. coli GC 4559; GC4559, read-out: MINIMAL INHIBITORY CONCENTRATION MIC, Human Serum): 32 µg/mL (≈ 41.5 µM) | MIC (E. coli GC 4559; GC4559, read-out: MINIMAL INHIBITORY CONCENTRATION MIC, Mouse Serum): 0.25 µg/mL (≈ 0.324 µM) | MIC (E. coli GC 4559; GC4559, read-out: MINIMAL INHIBITORY CONCENTRATION MIC, Water): > 64 µg/mL | MIC (S. aureus GC 6469; GC6469, read-out: MINIMAL INHIBITORY CONCENTRATION MIC, Human Serum): 1 µg/mL (≈ 1.3 µM) | MIC (S. aureus GC 6469; GC6469, read-out: MINIMAL INHIBITORY CONCENTRATION MIC, Mouse Serum): 0.5 µg/mL (≈ 0.648 µM) | MIC (S. aureus GC 6469; GC6469, read-out: MINIMAL INHIBITORY CONCENTRATION MIC, Water): 1 µg/mL (≈ 1.3 µM) | MIC (E. coli GC 2271; GC2271, read-out: MINIMAL INHIBITORY CONCENTRATION MIC, Human Serum): 8 µg/mL (≈ 10.4 µM) | MIC (E. coli GC 2271; GC2271, read-out: MINIMAL INHIBITORY CONCENTRATION MIC, Mouse Serum): 0.25 µg/mL (≈ 0.324 µM) | MIC (E. coli GC 2271; GC2271, read-out: MINIMAL INHIBITORY CONCENTRATION MIC, Water): 32 µg/mL (≈ 41.5 µM) | MIC (E. faecium GC 4556; GC4556, read-out: MINIMAL INHIBITORY CONCENTRATION MIC, Human Serum): 1 µg/mL (≈ 1.3 µM) | MIC (E. faecium GC 4556; GC4556, read-out: MINIMAL INHIBITORY CONCENTRATION MIC, Mouse Serum): 0.5 µg/mL (≈ 0.648 µM) | MIC (E. faecium GC 4556; GC4556, read-out: MINIMAL INHIBITORY CONCENTRATION MIC, Water): 1 µg/mL (≈ 1.3 µM) | MIC (S. aureus GC 6466; GC6466, read-out: MINIMAL INHIBITORY CONCENTRATION MIC, Human Serum): 0.12 µg/mL (≈ 0.155 µM) | MIC (S. aureus GC 6466; GC6466, read-out: MINIMAL INHIBITORY CONCENTRATION MIC, Mouse Serum): 0.12 µg/mL (≈ 0.155 µM) | MIC (S. aureus GC 6466; GC6466, read-out: MINIMAL INHIBITORY CONCENTRATION MIC, Water): 0.12 µg/mL (≈ 0.155 µM) | MIC (E. coli GC 2270; GC2270, read-out: MINIMAL INHIBITORY CONCENTRATION MIC, Human Serum): 16 µg/mL (≈ 20.7 µM) | MIC (E. coli GC 2270; GC2270, read-out: MINIMAL INHIBITORY CONCENTRATION MIC, Mouse Serum): 0.5 µg/mL (≈ 0.648 µM) | MIC (E. coli GC 2270; GC2270, read-out: MINIMAL INHIBITORY CONCENTRATION MIC, Water): 64 µg/mL (≈ 82.9 µM) | MIC (E. coli GC 2203; GC2203, read-out: MINIMAL INHIBITORY CONCENTRATION MIC, Human Serum): 16 µg/mL (≈ 20.7 µM) | MIC (E. coli GC 2203; GC2203, read-out: MINIMAL INHIBITORY CONCENTRATION MIC, Mouse Serum): 0.25 µg/mL (≈ 0.324 µM) | MIC (E. coli GC 2203; GC2203, read-out: MINIMAL INHIBITORY CONCENTRATION MIC, Water): 64 µg/mL (≈ 82.9 µM) | MIC (S. aureus GC 1079; GC1079, read-out: MINIMAL INHIBITORY CONCENTRATION MIC, Human Serum): 0.25 µg/mL (≈ 0.324 µM) | MIC (S. aureus GC 1079; GC1079, read-out: MINIMAL INHIBITORY CONCENTRATION MIC, Mouse Serum): 0.25 µg/mL (≈ 0.324 µM) | MIC (S. aureus GC 1079; GC1079, read-out: MINIMAL INHIBITORY CONCENTRATION MIC, Water): 1 µg/mL (≈ 1.3 µM)
